# Like-named read-outs stand apart in the source and are kept apart here.
# Columns and labels:
# MCF-7 (ER+) cells = test: Antiproliferative assay, MCF-7; assay type: cell-based; conditions: for IC50: read-out: MCF-7 IC50
# MDA-MB-231 (ER-) cells = test: Antiproliferative assay, MDA-MB-231; assay type: cell-based
# [1] = target: T1, Recombinant Human Aromatase (HA) (Homo sapiens, UniProt P11511); test: HA inhibition assay (Aromatase Inhibitor Screening Kit, fluorogenic substrate); assay type: biochemical; conditions: for Ki: values inside parenthesis, unit inferred, read-out: HA (Ki), inhibition constant (converted)
# T1 sequence (P11511 1-503): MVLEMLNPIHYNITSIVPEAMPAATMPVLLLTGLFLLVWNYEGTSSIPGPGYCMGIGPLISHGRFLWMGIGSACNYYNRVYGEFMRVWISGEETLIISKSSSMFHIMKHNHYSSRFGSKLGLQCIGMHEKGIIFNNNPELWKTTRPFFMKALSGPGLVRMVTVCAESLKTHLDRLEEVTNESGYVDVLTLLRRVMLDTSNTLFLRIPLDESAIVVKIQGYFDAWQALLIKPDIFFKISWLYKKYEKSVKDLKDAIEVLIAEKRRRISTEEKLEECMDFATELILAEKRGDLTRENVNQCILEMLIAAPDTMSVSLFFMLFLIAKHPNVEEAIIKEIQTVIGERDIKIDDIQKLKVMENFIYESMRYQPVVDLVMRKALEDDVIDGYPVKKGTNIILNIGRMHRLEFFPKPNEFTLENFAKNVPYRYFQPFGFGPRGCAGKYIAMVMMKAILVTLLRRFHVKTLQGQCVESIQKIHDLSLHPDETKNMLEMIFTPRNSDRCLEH
# [2] = Homo sapiens, MDA-MB-231, 72 h, read-out: MDA-MB-231 IC50
# [3] = Homo sapiens, MCF7, 72 h, 72 h, with 10 µM testosterone undecanoate
# [4] = tested at 200-0.1 µM, triplicate, read-out: HA IC50
# [5] = Homo sapiens, MDA-MB-231, 72 h, 72 h; read-out: MDA-MB-231 IC50
# [6] = kinetic experiments at varied substrate concentration
SMILES,IC50 (MCF-7 (ER+) cells; [3]),HA inhibitory activity (in words) [1],"IC50 [1, 4]",IC50 (MDA-MB-231 (ER-) cells; [5]),other results
O=c1cc(-c2ccc(O)cc2)oc2cc(O)cc(O)c12 [Apigenin],–,–,–,–,"IC50 (MCF-7 (ER+) cells; Homo sapiens, MCF7, 72 h): 13.6 ± 3.5 µM; IC50 (MDA-MB-231 (ER-) cells; [2]): 60 ± 1.6 µM"
C[C@@H]1O[C@@H](OC[C@H]2O[C@@H](Oc3c(-c4ccc(O)c(O)c4)oc4cc(O)cc(O)c4c3=O)[C@H](O)[C@@H](O)[C@@H]2O)[C@H](O)[C@H](O)[C@H]1O [Rutin],> 100 µM,inactive,> 100 µM,> 100 µM,Activity against MCF-7 (in words) (MCF-7 (ER+) cells): inactive; Activity against MDA-MB-231 (in words) (MDA-MB-231 (ER-) cells): inactive
COc1ccc(-c2cc(=O)c3c(OC)c(OC)c(OC)c(OC)c3o2)cc1 [Tangeretin],30.3 ± 2.1 µM,inactive,> 100 µM,45.6 ± 3.8 µM,–
CC1=CC(=O)CC(C)(C)[C@@]1(O)/C=C/C(C)=C\C(=O)O [Abscisic acid],–,inactive,> 100 µM,–,"Activity against MCF-7 (in words) (MCF-7 (ER+) cells): inactive; IC50 (MCF-7 (ER+) cells; Homo sapiens, MCF7, 72 h): > 100 µM; Activity against MDA-MB-231 (in words) (MDA-MB-231 (ER-) cells): inactive; IC50 (MDA-MB-231 (ER-) cells; [2]): > 100 µM"
Cc1coc2c1C(=O)C(=O)c1c-2ccc2c1CCCC2(C)C [Tanshinone IIA],~2.1 µM,–,42.5 ± 1.2 µM,~2.1 µM,"IC50 (MCF-7 (ER+) cells; 72 h, with 10 µM testosterone undecanoate): 1.4 ± 1.3 µM; Mode of inhibition [1, 6]: Non-competitive; Ki [1]: 40.9 µM; IC50 (MDA-MB-231 (ER-) cells; 72 h; read-out: MDA-MB-231 IC50): 3.7 ± 1.7 µM"
Oc1ccc(/C=C/c2cc(O)cc(O)c2)cc1 [Resveratrol],11 ± 2.2 µM,–,–,38 ± 3.5 µM,–
COc1ccc2cc3[n+](cc2c1OC)CCc1cc2c(cc1-3)OCO2 [Berberine],10.2 ± 2.6 µM,–,21.4 ± 0.9 µM,> 100 µM,"Mode of inhibition [1, 6]: Non-competitive; Mode of inhibition ([1]; kinetic experiments at varied substrate concentration, listed as berberine): non-competitive inhibition; Ki [1]: 20.1 µM"
C=C(C)[C@@H]1CC[C@]2(CO)CC[C@]3(C)[C@H](CC[C@@H]4[C@@]5(C)CC[C@H](O)C(C)(C)[C@@H]5CC[C@]43C)[C@@H]12 [Betulin],–,very weak inhibitory activity,–,–,"Activity against MCF-7 (in words) (MCF-7 (ER+) cells): very weak inhibitory activity; IC50 (MCF-7 (ER+) cells; Homo sapiens, MCF7, 72 h): 67 ± 2.6 µM; IC50 [1]: 95.3 µM; Mode of inhibition [1]: Non-competitive; Activity against MDA-MB-231 (in words) (MDA-MB-231 (ER-) cells): very weak inhibitory activity; IC50 (MDA-MB-231 (ER-) cells; Homo sapiens, MDA-MB-231, 72 h; read-out: MDA-MB-231 IC50): > 100 µM"
CC(C)=CCc1c2c(c3occ(-c4ccc(O)c(O)c4)c(=O)c3c1O)C=CC(C)(C)O2 [Pomiferin],5.4 ± 2.2 µM,–,15.1 ± 0.5 µM,30.9 ± 3.1 µM,"Mode of inhibition [1, 6]: Non-competitive; Mode of inhibition ([1]; kinetic experiments at varied substrate concentration, listed as pomiferin): non-competitive inhibition; Ki [1]: 14.8 µM"
"N#Cc1ccc(C(c2ccc(C#N)cc2)n2cncn2)cc1 [Letrozole, reference compound]",5.6 ± 1.1 µM,–,–,41.3 ± 2.1 µM,–
O=c1cc(-c2ccccc2)oc2cc(O)cc(O)c12 [Chrysin],7.8 ± 2.8 µM,–,–,65 ± 2.3 µM,–

# — article PMC8759730, “Targeting allosteric sites of human aromatase: a comprehensive in-silico and in-vitro workflow to find potential plant-based anti-breast cancer therapeutics” (Journal of Enzyme Inhibition and Medicinal Chemistry, 2021)
